Calls of active or inactive are those of the source. The rule behind the calls is not given here.
Target: Toxin B (TcdB) glycohydrolase, Clostridioides difficile 630
Test: TcdB glycohydrolase inhibitors, dose response, biochemical, cherry-pick, plate reader (AID 720512)
Conditions: recombinant TcdB glycohydrolase activity

Structure (SMILES)	activity change, negative = inhibition (at 19.5 µM (top of the series))	further results
O=S(=O)(Nc1ccc(O)cc1)c1cccc2cccnc12	inactive	–
Cc1ccc(CSc2nc3nc(C)cc(C)c3c(=O)[nH]2)cc1	inactive	–
C[C@@H]1CN([C@@H](C)CO)S(=O)(=O)c2ccc(C#Cc3ccncc3)cc2O[C@H]1CN(C)C(=O)C1CC1	inactive	–
Cc1ccc(C)c2nc(Cl)c(C3NC(=O)c4ccccc4N3)cc12 (stereo not given)	inactive	–
O=C(Nc1ccc(O)cc1)/C(=C\c1ccncc1)NC(=O)c1ccccc1	inactive	–
CN(C)c1ccc(C(=S)N2CCN(C(=S)Nc3ccc(Cl)cc3)CC2)cc1	inactive	–
Cc1cccn2c(=S)[nH]nc12	inactive	–
COc1cc(-c2n[nH]c(=S)n2/N=C/c2cccn2C)cc(OC)c1OC	inactive	–
Cc1ccc2sc(NNC(=O)C3COc4ccccc4O3)nc2c1C (stereo not given)	inactive	–
N#Cc1ccc(C(=O)N/N=C/c2cn(CC(=O)O)c3ccccc23)c(F)c1	inactive	–
Cc1ccc(/C=C/c2onc(C)c2S(=O)(=O)N2CCC(C(=O)NC(C)(C)C)CC2)cc1	inactive	–
O=C(O)c1cccnc1SCc1ccccc1Cl	inactive	–
COCCN(C(=O)C(C)C)c1nnc(-c2ccc(C(C)(C)C)cc2)s1	inactive	–
Cc1ccc(S(=O)(=O)/N=C(/Nc2cccc(O)c2)c2ccccc2)cc1	inactive	–
CC(=O)C1=CCC(c2ccc(C)cc2)N(S(=O)(=O)c2ccc(C)cc2)C1 (stereo not given)	inactive	–
COc1cc(O)ccc1C(=O)CCc1ccc(O)cc1	inactive	–
COc1cc2nncc(SC)c2cc1OC	inactive	–
O=C(O)c1cc(S(=O)(=O)Nc2ccc3cn[nH]c3c2)ccc1Cl	inactive	–
NC(=O)C1(Nc2ccc(-c3ccc(Br)cc3)cc2)CCCC1	inactive	–
COc1ccc(NC(=O)C2CC(=O)N(c3ccccc3F)C2)cc1S(=O)(=O)N1CCCCC1 (stereo not given)	inactive	–
COc1cccc(C(=O)COC(=O)c2ccc(NC(=O)c3ccccc3)cc2)c1	inactive	–
Cc1cc(C)nc(NC(N)=NCCc2ccccc2)n1	inactive	–
Cc1onc(-c2ccccc2)c1C(=O)N/N=C/c1cn(C)c2ccccc12	inactive	–

Structure (SMILES)	activity change, negative = inhibition (at 19.5 µM (top of the series))	further results
CCCNC(=O)Nc1ccc2c(c1)C(=O)N(C)[C@@H]1CC[C@H](CC(=O)NC3CCC3)O[C@H]1CO2	inactive	–
CN1CCN(C(CNC(=O)c2ccc(Br)o2)c2ccc(F)cc2)CC1 (stereo not given)	inactive	–
O=c1[nH]c(CSc2nnc(Cc3ccccc3)o2)nc2ccccc12	inactive	–
CN(C(=O)COC(=O)CNC(=O)c1ccccc1Cl)c1ccccc1	inactive	–
O=C(CC(=O)N/N=C/c1ccc(O)cc1)N/N=C/c1ccc(O)cc1	inactive	–
COc1ccc(SC[C@H](C)CN2CC[C@H](NC(=O)OCc3ccccc3)CCC2=O)cc1	inactive	–
Cc1ccc(S(=O)(=O)N2CCCC2C(=O)Nc2ccc(O)cc2)cc1 (stereo not given)	inactive	–
Cc1ccc(/C=C/c2onc(C)c2S(=O)(=O)N2CCC(C(=O)N3CCCCC3)CC2)cc1	inactive	–
O=C(C[C@@H]1CC[C@@H]2[C@H](COC[C@@H](O)CN2C(=O)Nc2ccc(Cl)c(Cl)c2)O1)NCc1ccncc1	inactive	–
CCOc1ccccc1/C=C/c1onc(C)c1S(=O)(=O)N1CCC(C(=O)NC(C)(C)C)CC1	inactive	–
C=CCn1c(SCC(=O)N2CC(=O)Nc3ccccc32)nc2scc(-c3ccccc3)c2c1=O	inactive	–
C[C@H](CO)N1C[C@H](C)[C@H](CN(C)Cc2ccc(Oc3ccccc3)cc2)Oc2cc(-c3ccncc3)ccc2S1(=O)=O	inactive	–
COc1cc(-c2noc(C)c2C#CC2(O)CCCCC2)cc(OC)c1OC	inactive	–
COc1ccc2[nH]c3c(=O)n(CCCCC(=O)NCCN4CCCC4)c(=S)[nH]c3c2c1	–	activity change, negative = inhibition (at 10 µM (top of the series)): inactive
CC(=O)N/C(=C\c1ccccc1)C(=O)Nc1ccc(O)cc1	–	AC50: > 39 µM (inactive)
O=[N+]([O-])c1c(Nc2ccccc2O)ccc2nonc12	inactive	–
O=C(CCn1c(=O)oc2cc(Cl)ccc21)Nc1ccc(O)cc1	–	AC50: > 20 µM (inactive)
CCOC(=O)c1cccc(NC(=O)CCNS(=O)(=O)c2cccc3nonc23)c1	inactive	–
Cc1ccc(C2=NS(=O)(=O)N(C)C(C(=O)NCc3ccccc3)=C2)cc1	inactive	–
CCOC(=O)/C=c1/s/c(=C/c2ccc3cc(OC)ccc3c2)c(=O)n1CC(=O)NCC1CCCO1 (stereo not given)	inactive	–
O=C(O)c1ccccc1C(=O)c1ccc2c(c1)N(Cc1cccc(F)c1)C(=O)CO2	inactive	–
Cc1ccc(NC(=O)C2OCCc3ccccc32)cc1C (stereo not given)	inactive	–
CC1CCC/C(=C\c2ccc(O)cc2)C1=O (stereo not given)	–	AC50: 16.9 µM

Structure (SMILES)	activity change, negative = inhibition (at 19.5 µM (top of the series))	further results
Cc1ccc(Oc2c(CO)c(-c3ccccc3)nn2C)cc1	inactive	–
CCOC(=O)[C@@H]1[C@H]2COc3ccc(Br)cc3[C@@H]2N2C(=O)N(c3cccc(F)c3)C(=O)[C@]12C	inactive	–
CCCNC(=O)N1CC[C@@H]2[C@@H](CO)N(C)c3ccc(-c4ccccc4)cc3[C@@H]21	–	AC50: > 39 µM (inactive)
O=C(NC(=S)Nc1ccc(O)cc1)c1ccccc1Cl	inactive	–
COC(=O)/C=C/C(=O)Nc1ccc(O)c(Cl)c1	–	AC50: 20.9 µM
COc1ccc(/C=C/c2onc(C)c2S(=O)(=O)N2CCC(C(=O)N3CCC(C)CC3)CC2)cc1	inactive	–
Cc1cc(C)c2nc(C)cc(N/N=C/c3ccc(O)cc3)c2c1	–	AC50: > 39 µM (inactive)
Cc1[nH]ccc2c1[nH]c1cc(=O)ccc12	inactive	–
Nc1ccccc1-c1nc2ccncc2[nH]1	inactive	–
COc1ccc(N2CCN(CCNC(=O)Nc3cc(Cl)ccc3OC)CC2)cc1	inactive	–
CN(c1ccccc1)S(=O)(=O)c1cccc(C(=O)NCCc2ccc(O)c(O)c2)c1	inactive	–
COc1ccc(CC(=O)NNC(=S)NC(=O)c2cccnc2)cc1	inactive	–
S=c1[nH]nc2ccccn12	inactive	–
Cc1ccc(NNC(=O)C2CCC2)cc1C	inactive	–
CCc1cc(-c2n[nH]c(C)c2-c2nc(C)cs2)c(O)cc1OC	–	AC50: > 39 µM (inactive)
CCCn1c(N)c(C(=O)COC(=O)c2cccc(S(=O)(=O)N3CCOCC3)c2)c(=O)[nH]c1=O	inactive	–
COc1ccccc1CNC(=O)CNC(=O)N1CC(=O)Nc2ccccc21	inactive	–
CC(=O)N(c1ccccc1C)S(=O)(=O)c1ccc(Cl)cc1	inactive	–
O=C(NNc1ccc(-c2csnn2)cc1)c1cc(Cl)cc(Cl)c1	inactive	–
Cn1c(=O)c2c([nH]c(=S)n2Cc2ccc(Cl)cc2)n(C)c1=O	inactive	–
Cc1ccc(/C=N/NC(=O)c2cccc(S(=O)(=O)Nc3ccccc3Cl)c2)o1	inactive	–
COc1ccc(C2=NS(=O)(=O)N(C)C(C(=O)NCc3ccc(F)cc3)=C2)cc1OC	inactive	–
CC(=O)N(C)C[C@@H]1Oc2cc(/C=C/c3ccccc3)ccc2S(=O)(=O)N([C@H](C)CO)C[C@@H]1C	–	AC50: > 39 µM (inactive)

Structure (SMILES)	activity change, negative = inhibition (at 19.5 µM (top of the series))	further results
O=C(OCC(=O)N1CCCc2ccccc21)c1ccc(C(F)(F)F)cc1	inactive	–
CC(C)(C)N1C(=O)c2ccc(C(=O)Nc3ccc(O)cc3)cc2C1=O	inactive	–
COc1cc(/C=C(\C#N)C(=O)N2CCCCC2)ccc1O	inactive	–
CC1(C)CCC/C(=C\c2ccccc2)C1=O	inactive	–
COc1cc(/C=N/Nc2ccccn2)ccc1O	inactive	–
COc1cc(/C=N/NC2=NCCCCC2)ccc1O	inactive	–
CC[n+]1ccc(/C=C/c2ccc(N(C)C)cc2)c2ccccc21	inactive	–
COc1ccccc1OCC(=O)Nc1ccc(-c2nnc(-c3ccco3)o2)cc1	inactive	–
COc1ccc(-c2cnc3c(c2)C(=O)N([C@@H](C)CO)C[C@H](C)[C@H](CN(C)C(=O)C2CCCCC2)O3)cc1	inactive	–
Cc1nn(C)cc1-c1n[nH]c(=S)n1-c1ccc(F)cc1	inactive	–
CCN(C(=O)CN1C(=O)NC2(CCC(C)CC2)C1=O)C1CCCCC1 (stereo not given)	inactive	–
CC12CCC3C(=CCc4cc(O)ccc43)C1CC(=NO)C2O (stereo not given)	inactive	–
CCOC(=O)c1ccc(N=c2sc(C(=O)OC)cc(=O)n2CCCN2CCOCC2)cc1	inactive	–
COc1ccc(C2(CNC(=O)c3ccc(OC)c([N+](=O)[O-])c3)CCCCC2)cc1OC	–	AC50: > 39 µM (inactive)
Cc1ccc(S(=O)(=O)Oc2cccc(/C=N/Nc3ccc(C(=O)O)cc3)c2)cc1	inactive	–
O=C(C[C@@H]1C[C@@H]2c3cc(NC(=O)c4ccc5c(c4)OCO5)ccc3O[C@@H]2[C@@H](CO)O1)NCc1cccc(F)c1	inactive	–
NC(=O)CC(NC(=O)c1ccccc1)c1ccc(NCCc2ccc(F)cc2)c([N+](=O)[O-])c1 (stereo not given)	inactive	–
Cc1ccc(C2=NS(=O)(=O)N(C)C(C(=O)NC(C)c3ccccc3)=C2)cc1 (stereo not given)	inactive	–
O=C1Cc2cc(S(=O)(=O)NCc3ccccc3Cl)cc3c2N1CCC3	inactive	–
O=P1(Oc2ccccc2)OCCCS1 (stereo not given)	inactive	–
Cc1cc(/C=C(\C#N)C(=O)N2CCCCC2)cc(C)c1O	inactive	–

Source: PubChem BioAssay AID720512 (Broad Institute, 2013)
